The values that follow come from patent US20050059661A1, “Use of tyrosine kinase inhibitors for the treatment of inflammatory processes” (Boehringer Ingelheim International GmbH, priority 2003, published 2005).

The experiment deals with cigarette smoke-induced influx of neutrophilic granulocytes into the lung tissue. The experiment is described as follows: Test 1: Inhibition of the smoke-induced accumulation of granulocytes in the lung tissue (MPO activity). The experiment is classed as in vivo, rats (Sprague-Dawley). The following applies: for ID50 (dosage which led to a 50% inhibition of the MPO activity): male Sprague-Dawley rats, 5 days smoke from 8 cigarettes per day, intratracheal dose 30 min before exposure, lung tissue MPO, linear regression. The text has this:
• A=4-[(R)-(1-phenyl-ethyl)amino]-6-{[4-((R)-6-methyl-2-oxo-morpholin-4-yl)-1-oxo-2-buten-1-yl]amino}-7-methoxy-quinazoline, • B=4-[(3-chloro-4-fluorophenyl)amino]-6-({4-[N,N-bis-(2-methoxy-ethyl)-amino]-1-oxo-2-buten-1-yl}amino)-7-[(tetrahydrofuran-2-yl)methoxy]-quinazoline, • C=4-[(3-chloro-4-fluoro-phenyl)amino]-6-[2-(2,2-dimethyl-6-oxo-morpholin-4-yl)-ethoxy]-7-methoxy-quinazoline, • D=4-[(3-chloro-4-fluoro-phenyl)amino]-6-[2-(2,2-dimethyl-6-oxo-morpholin-4-yl)-ethoxy]-7-[(R)-(tetrahydrofuran-2-yl)methoxy]-quinazoline and • E=4-[(3-chloro-4-fluoro-phenyl)amino]-7-[2-(2,2-dimethyl-6-oxo-morpholin-4-yl)-ethoxy]-6-[(S)-(tetrahydrofuran-2-yl)methoxy]-quinazoline were tested as follows to investigate their anti-inflammatory activity: Test 1: Inhibition of the Smoke-Induced Accumulation of Granulocytes in the Lung Tissue Lung indications: Inhibition of the cigarette smoke-induced influx of neutrophilic granulocytes into the lung tissue by the EGF-receptor kinase inhibitor 4-[(R)-(1-phenyl-ethyl)amino]-6-{[4-((R)-6-methyl-2-oxo-morpholin-4-yl)-1-oxo-2-buten-1-yl]amino}-7-methoxy-quinazoline (compound A). Male rats (strain: Sprague-Dawley) weighing from 250-300 g were exposed for 5 days to the smoke from 8 cigarettes per day. The animals in the group treated with compound A, anaesthetised with isofluran, were given an intratracheal dose of 0.03 or 0.1 mg/kg of compound A in a volume of 0.05 ml each day 30 min before the start of the exposure to smoke. On the last day of the test the animals were killed 4 hours after the last exposure to smoke and the lung tissue was removed. A sample of 70-200 mg was taken from each lung and placed in a test tube prepared with 1 ml of 0.5% hexadecyltrimethylammonium bromide. The samples were homogenised for 15 sec using an Ultraturrax. The homogenised samples were centrifuged at 15700 g in an Eppendorf bench centrifuge for 5 min at ambient temperature. […] of the supernatant was removed and mixed with […] of phosphate buffer (50 mmol/l) containing 0.197 mg/ml of O-dianisidine dihydrochloride. After 10 minutes' incubation at ambient temperature the absorption was measured with a spectral photometer at a wavelength of 450 nm. The dosage which led to a 50% inhibition of the MPO activity (═ID50) was determined by linear regression.

Take `COc1cc2ncnc(Nc3ccc(F)c(Cl)c3)c2cc1OCCN1CC(=O)OC(C)(C)C1` [C, 4-[(3-chloro-4-fluoro-phenyl)amino]-6-[2-(2,2-dimethyl-6-oxo-morpholin-4-yl)-ethoxy]-7-methoxy-quinazoline]: the “ID50 (dosage which led to a 50% inhibition of the MPO activity)” value amounted to 1 mg/kg.
The same measure, in the same setting: the value for `COCCN(CC=CC(=O)Nc1cc2c(Nc3ccc(F)c(Cl)c3)ncnc2cc1OCC1CCCO1)CCOC` (stereo not drawn) [B, 4-[(3-chloro-4-fluorophenyl)amino]-6-({4-[N,N-bis-(2-methoxy-ethyl)-amino]-1-oxo-2-buten-1-yl}amino)-7-[(tetrahydrofuran-2-yl)methoxy]-quinazoline] was 0.2 mg/kg; that for `CC1(C)CN(CCOc2cc3c(Nc4ccc(F)c(Cl)c4)ncnc3cc2OC[C@H]2CCCO2)CC(=O)O1` [D, 4-[(3-chloro-4-fluoro-phenyl)amino]-6-[2-(2,2-dimethyl-6-oxo-morpholin-4-yl)-ethoxy]-7-[(R)-(tetrahydrofuran-2-yl)methoxy]-quinazoline] was 1.1 mg/kg.
Consider `CC1(C)CN(CCOc2cc3ncnc(Nc4ccc(F)c(Cl)c4)c3cc2OC[C@@H]2CCCO2)CC(=O)O1` [E, 4-[(3-chloro-4-fluoro-phenyl)amino]-7-[2-(2,2-dimethyl-6-oxo-morpholin-4-yl)-ethoxy]-6-[(S)-(tetrahydrofuran-2-yl)methoxy]-quinazoline], for which the “ID50 (dosage which led to a 50% inhibition of the MPO activity)” value is on record as 0.4 mg/kg.
For the compound `COc1cc2ncnc(N[C@H](C)c3ccccc3)c2cc1NC(=O)C=CCN1CC(=O)O[C@H](C)C1` [A, 4-[(R)-(1-phenyl-ethyl)amino]-6-{[4-((R)-6-methyl-2-oxo-morpholin-4-yl)-1-oxo-2-buten-1-yl]amino}-7-methoxy-quinazoline], the “ID50 (dosage which led to a 50% inhibition of the MPO activity)” value is 0.3 mg/kg. Besides, the “inhibition of the smoke-induced accumulation of granulocytes (myeloperoxidase content of lung tissue)” value (rats, intratracheal 0.03 or 0.1 mg/kg daily for 5 days, 30 min before smoke exposure) is reported as “significant (p<0.005) inhibition”.
